Measured values from patent US20050209278A1, “Piperidinyl- and piperazinyl-sulfonylmethyl hydroxamic acids and their use as protease inhibitors” (priority 2002, published 2005).
Like-named read-outs stand apart in the source and are kept apart here.

How the values were obtained:
MMP-1 = target: T1, MMP-1 (Homo sapiens, UniProt P03956); experiment: In vitro MMP inhibition, IC50 determination (fluorogenic substrate I); assay type: biochemical; settings: read-out: MMP-1 (IC-50)
T1 construct: made in house; host or cells: MMP-1-transfected HT-1080 cells (spent media)
T1 sequence (P03956 100-469): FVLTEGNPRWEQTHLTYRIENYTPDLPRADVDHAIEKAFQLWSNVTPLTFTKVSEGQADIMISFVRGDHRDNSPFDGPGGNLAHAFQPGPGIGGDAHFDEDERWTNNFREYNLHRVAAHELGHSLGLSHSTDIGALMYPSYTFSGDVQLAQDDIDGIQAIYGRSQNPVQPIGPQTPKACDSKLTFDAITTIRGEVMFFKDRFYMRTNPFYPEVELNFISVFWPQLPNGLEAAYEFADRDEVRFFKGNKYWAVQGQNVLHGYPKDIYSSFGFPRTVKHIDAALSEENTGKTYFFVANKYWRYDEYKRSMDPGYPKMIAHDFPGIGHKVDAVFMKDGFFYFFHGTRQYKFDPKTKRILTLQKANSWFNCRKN

MMP-14 = target: T2, MMP-14 (Homo sapiens, UniProt P50281); experiment: as above; assay type: biochemical; settings: read-out: MMP-14 (IC-50)
T2 construct: The catalytic domain enzyme was expressed in E. coli inclusion bodies, solubilized in urea; made in house

Row | SMILES | IC50 (MMP-1; value in parenthesis) | IC50 (MMP-14; value in parenthesis) | IC50 (MMP-1; value in parentheses) | IC50 (MMP-14; value in parentheses)
1 | CCOCCCc1ccc(N2CCN(S(=O)(=O)C3(C(=O)NO)CCN(CCOC)CC3)CC2)cc1 [Example 179] | > 10 µM | 3.62 µM | – | –
2 | COCCCc1ccc(N2CCN(S(=O)(=O)C3(C(=O)NO)CCN(CCOC)CC3)CC2)cc1 [Example 180] | > 10 µM | 5.56 µM | – | –
3 | COCCN1CCC(C(=O)NO)(S(=O)(=O)N2CCN(c3ccc(CC4CCCCC4)cc3)CC2)CC1 [Example 181] | > 10 µM | > 10 µM | – | –
4 | COCCN1CCC(C(=O)NO)(S(=O)(=O)N2CCN(c3ccc(CCC4CCCC4)cc3)CC2)CC1 [Example 182] | > 10 µM | 7.85 µM | – | –
5 | COCCN1CCC(C(=O)NO)(S(=O)(=O)N2CCN(c3ccc(CC4CCC4)cc3)CC2)CC1 [Example 183] | > 10 µM | 2.04 µM | – | –
6 | CCOc1ccc(N2CCN(S(=O)(=O)C3(C(=O)NO)CCN(CCOC)CC3)CC2)cc1F [Example 184] | > 10 µM | 2.4 µM | – | –
7 | CCCOc1ccc(N2CCN(S(=O)(=O)C3(C(=O)NO)CCN(CCOC)CC3)CC2)cc1F [Example 185] | > 10 µM | > 10 µM | – | –
8 | COCCN1CCC(C(=O)NO)(S(=O)(=O)N2CCN(c3ccc(C#N)cc3)CC2)CC1 [Example 186] | > 10 µM | 7.48 µM | – | –
9 | CCc1cnc(N2CCN(S(=O)(=O)C3(C(=O)NO)CCN(CCOC)CC3)CC2)nc1 [Example 187] | > 10 µM | > 10 µM | – | –
10 | CCC(CC)Cc1ccc(N2CCN(S(=O)(=O)C3(C(=O)NO)CCN(CCOC)CC3)CC2)cc1 [Example 188] | > 10 µM | > 10 µM | – | –
11 | CCCCOc1ccc(N2CCN(S(=O)(=O)C3(C(=O)NO)CCN(C(=O)CCC)CC3)CC2)cc1 [Example 290] | – | – | > 10 µM | 3.8 µM
